Legend:
Experiment in all cases: glycosidase inhibition assay
Conditions in all cases: read-out: % inhibition at 1 mM
[1] = biological target: T1, α-D-mannosidase from Jack beans (Canavalia ensiformis, UniProt C0HJB3); assay type: biochemical
T1 construct: commercial native enzyme preparation
T1 sequence (C0HJB3 1-562): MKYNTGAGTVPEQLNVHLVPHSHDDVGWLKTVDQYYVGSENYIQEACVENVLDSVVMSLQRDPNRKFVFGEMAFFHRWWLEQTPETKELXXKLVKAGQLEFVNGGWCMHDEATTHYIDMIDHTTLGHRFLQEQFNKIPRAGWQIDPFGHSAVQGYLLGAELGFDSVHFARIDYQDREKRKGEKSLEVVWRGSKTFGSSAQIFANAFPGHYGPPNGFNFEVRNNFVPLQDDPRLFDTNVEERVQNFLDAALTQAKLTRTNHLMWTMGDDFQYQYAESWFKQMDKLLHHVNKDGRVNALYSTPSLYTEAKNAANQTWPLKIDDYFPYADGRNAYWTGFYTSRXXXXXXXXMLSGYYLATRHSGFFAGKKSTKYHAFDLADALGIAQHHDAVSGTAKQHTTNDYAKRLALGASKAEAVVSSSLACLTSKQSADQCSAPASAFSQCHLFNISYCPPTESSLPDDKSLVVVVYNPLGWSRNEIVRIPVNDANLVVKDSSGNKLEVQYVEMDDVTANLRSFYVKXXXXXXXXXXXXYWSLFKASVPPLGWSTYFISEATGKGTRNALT
T1 sequence (C0HJB3 563-981): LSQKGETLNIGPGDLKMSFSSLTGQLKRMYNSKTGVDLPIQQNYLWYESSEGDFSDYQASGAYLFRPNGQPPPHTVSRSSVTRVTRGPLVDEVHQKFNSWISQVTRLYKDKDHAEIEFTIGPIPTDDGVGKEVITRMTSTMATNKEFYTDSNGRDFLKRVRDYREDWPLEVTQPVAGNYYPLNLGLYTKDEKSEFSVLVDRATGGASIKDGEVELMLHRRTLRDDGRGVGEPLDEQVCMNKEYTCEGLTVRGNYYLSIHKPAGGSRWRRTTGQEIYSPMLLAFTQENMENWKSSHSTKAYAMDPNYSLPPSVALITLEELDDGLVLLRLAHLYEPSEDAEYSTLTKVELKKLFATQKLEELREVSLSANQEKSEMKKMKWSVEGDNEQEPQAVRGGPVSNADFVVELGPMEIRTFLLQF
Source text: glycosidase inhibition assay on α-D-mannosidase from Jack beans

[2] = biological target: T2, amyloglucosidase from Aspergillus niger (Aspergillus niger, UniProt P69328); assay type: biochemical
T2 construct: gene GLAA; commercial native enzyme preparation
Source text: glycosidase inhibition assay on amyloglucosidase from Aspergillus niger

[3] = biological target: T3, α-D-glucosidase from Bacillus stearothermophilus (Geobacillus stearothermophilus, UniProt A0ACH1E9U3)
T3 construct: gene QSJ10_02665
T3 sequence (A0ACH1E9U3 1-555): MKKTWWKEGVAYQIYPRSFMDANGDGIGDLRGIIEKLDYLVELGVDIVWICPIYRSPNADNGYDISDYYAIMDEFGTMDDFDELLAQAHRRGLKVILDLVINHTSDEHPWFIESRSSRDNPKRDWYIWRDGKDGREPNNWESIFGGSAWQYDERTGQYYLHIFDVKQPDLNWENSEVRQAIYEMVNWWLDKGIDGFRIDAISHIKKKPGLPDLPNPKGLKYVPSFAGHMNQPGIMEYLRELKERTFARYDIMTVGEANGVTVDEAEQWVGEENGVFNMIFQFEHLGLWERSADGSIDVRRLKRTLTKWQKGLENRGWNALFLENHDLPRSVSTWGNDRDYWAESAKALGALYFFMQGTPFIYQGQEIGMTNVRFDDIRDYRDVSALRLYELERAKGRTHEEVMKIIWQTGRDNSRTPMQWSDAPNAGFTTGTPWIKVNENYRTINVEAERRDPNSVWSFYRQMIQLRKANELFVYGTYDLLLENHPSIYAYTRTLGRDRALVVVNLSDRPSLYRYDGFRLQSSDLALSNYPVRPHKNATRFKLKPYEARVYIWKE

[4] = biological target: T4, α-L-fucosidase from bovine kidney (Bos taurus, UniProt Q2KIM0); assay type: biochemical
T4 construct: gene FUCA1; commercial native enzyme from kidney
T4 sequence (Q2KIM0 23-468): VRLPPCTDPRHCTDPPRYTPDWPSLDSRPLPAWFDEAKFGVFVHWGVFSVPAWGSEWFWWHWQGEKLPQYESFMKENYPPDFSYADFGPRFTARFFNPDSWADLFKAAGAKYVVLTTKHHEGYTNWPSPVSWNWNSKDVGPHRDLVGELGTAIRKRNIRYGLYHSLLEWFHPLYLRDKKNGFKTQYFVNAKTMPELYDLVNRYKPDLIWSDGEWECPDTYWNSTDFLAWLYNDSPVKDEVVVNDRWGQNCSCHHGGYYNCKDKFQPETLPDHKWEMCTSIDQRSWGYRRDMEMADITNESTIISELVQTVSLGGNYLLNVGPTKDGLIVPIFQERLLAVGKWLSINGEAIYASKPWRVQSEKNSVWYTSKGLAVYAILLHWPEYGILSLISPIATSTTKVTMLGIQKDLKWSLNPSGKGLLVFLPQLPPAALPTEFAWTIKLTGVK
Source text: glycosidase inhibition assay on α-L-fucosidase from bovine kidney

T2 sequence (P69328 25-640): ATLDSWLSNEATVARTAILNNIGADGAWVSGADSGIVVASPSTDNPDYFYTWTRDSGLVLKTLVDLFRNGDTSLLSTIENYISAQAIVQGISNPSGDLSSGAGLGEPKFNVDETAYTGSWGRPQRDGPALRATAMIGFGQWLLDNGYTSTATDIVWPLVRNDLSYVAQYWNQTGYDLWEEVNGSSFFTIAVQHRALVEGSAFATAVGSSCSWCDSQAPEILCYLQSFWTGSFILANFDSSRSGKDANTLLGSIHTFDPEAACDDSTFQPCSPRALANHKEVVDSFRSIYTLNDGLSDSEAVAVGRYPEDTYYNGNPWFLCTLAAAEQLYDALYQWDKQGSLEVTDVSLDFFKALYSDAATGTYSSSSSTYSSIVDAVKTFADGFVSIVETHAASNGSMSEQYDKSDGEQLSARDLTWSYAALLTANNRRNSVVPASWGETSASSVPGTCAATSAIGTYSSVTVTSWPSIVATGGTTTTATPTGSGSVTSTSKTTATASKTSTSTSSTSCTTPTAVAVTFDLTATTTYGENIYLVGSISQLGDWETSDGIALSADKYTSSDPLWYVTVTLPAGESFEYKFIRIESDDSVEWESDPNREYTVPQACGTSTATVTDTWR

inhibition at 1000 µM [4] [%] | Compound | inhibition at 1000 µM [1] [%] | inhibition at 1000 µM [2] [%] | inhibition at 1000 µM [3] [%]
 | N[C@@H]1C[C@@H](O)[C@@H](O)[C@H](O)[C@H](O)C[C@H]1O [compound 16, aminocyclitol 16] | 8 |  | 
 | N[C@H]1C[C@H](O)[C@@H](O)[C@H](O)[C@@H](O)C[C@@H]1O [compound 15, aminocyclitol 15] | 16 | 28 | 
14 | O[C@H]1[C@H](O)[C@@H](O)C[C@H](O)[C@H](O)C[C@@H]1O [compound 5, C8 hexa-substituted carbasugar 5] |  |  | 9
13 | O[C@H]1[C@H](O)[C@H](O)C[C@H](O)[C@H](O)C[C@H]1O [compound 6, C8 hexa-substituted carbasugar 6] |  |  | 
 | OCC(CO)N[C@@H]1C[C@@H](O)[C@@H](O)[C@H](O)[C@H](O)C[C@H]1O [compound 20, aminocyclitol 20] | 8 | 29 | 6
 | OCC(CO)N[C@H]1C[C@H](O)[C@@H](O)[C@H](O)[C@@H](O)C[C@@H]1O [compound 19, C8-voglibose mimetic 19] | 10 | 27 | 
